Common to all, as to assay: NCI-60 cell line screen, 48 h
Assay [1] concerns IGROV1 ovarian.
The subject of assay [2] is TK-10 renal.
In assay [3] the test system is NCI/ADR-RES ovarian.
Assay [4] relates to SK-MEL-5 melanoma.
Assay [5] concerns KM12 colon.
The test system of assay [6] is OVCAR-4 ovarian.
The test system of assay [7] is MDA-MB-231 breast.
For assay [8], the system named is T-47D breast.
Assay [9] concerns LOX IMVI melanoma.
Assay [10] relates to CAKI-1 renal.

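Cells were grown in 96-well plates and exposed to each compound for 48 hours at five concentrations; endpoints were interpolated linearly between bracketing concentrations, or set to the highest concentration if not reached. TGI: concentration producing complete growth inhibition.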 Where only a bound is given, the exact number is not on record here.

Turning to `N=c1oc2ccc(Cl)cc2cc1C(=O)NCc1ccccc1`, the TGI in [1], in assay [2], in assay [3], in assay [4], in [5] and in [6] was above 100 µM each time. In addition, the TGI in assay [7], in assay [8], in [9] and in assay [10] was above 100 µM each time.

`Cc1ccc2cccc3c2c1CC1(C3=O)S(=O)(=O)OCCOS1(=O)=O`: the TGI in [1], in assay [2], in assay [3], in [4], in assay [5] and in [6] was above 100 µM throughout. The TGI in assay [7], in assay [8], in [9] and in [10] was above 100 µM each time.

Take `Cc1ccc(/C=N/NC2=NCCN2)s1`: the TGI in assay [1], in assay [2], in assay [3], in [4], in [5] and in assay [6] was above 100 µM throughout. In addition, the TGI in assay [7], in assay [8], in assay [9] and in assay [10] was above 100 µM in each case.

Consider `COc1ccc(C(C#N)NCCCCCCNC(C#N)c2ccc(OC)cc2)cc1` (stereo not given), for which the TGI in assay [1], in assay [2], in assay [3], in [4], in assay [5] and in assay [6] was above 100 µM each time. Further, the TGI in [7], in assay [8], in assay [9] and in assay [10] was above 100 µM throughout.

Take `OCCN=C1c2ccccc2C2C(c3ccccc31)C1c3ccccc3C(=NCCO)c3ccccc3C21` (stereo not given): the TGI in [1] turned out to be 98.5 µM; in assay [2], 79.5 µM; in assay [3] it was 72.6 µM; in [4] it was 35.2 µM; in assay [5] it was 44 µM; in [6], 60.2 µM. In addition, the TGI was 31.4 µM in assay [7], 97 µM in assay [8], 52.6 µM in assay [9] and 39.5 µM in [10].

Regarding `O=c1c(-c2ccccc2Cl)coc2cc(F)ccc12`, the TGI in assay [1] is 51.5 µM; in assay [2], above 100 µM; in assay [3], 46.7 µM; in [4] it was above 100 µM; in [5] it was 71.8 µM; in assay [6], above 100 µM. In addition, the TGI in assay [7] was 67.3 µM; in assay [8], above 100 µM; in [9], 35.3 µM; in [10] it was above 100 µM.

As for `Cc1ccc(Nc2nc(=O)[nH]c(=O)[nH]2)cc1N=[N+]=[N-]`, the TGI in assay [1], in [2], in assay [3], in assay [4], in assay [5] and in [6] was above 100 µM throughout. Besides, the TGI in assay [7], in assay [8], in [9] and in assay [10] was above 100 µM each time.

In the case of `COC1(OC)C2(Cl)C(Cl)=C(Cl)C1(Cl)C1COCC12` (stereo not given), the TGI in assay [1] is above 100 µM; in assay [2] it was above 72.3 µM; in [3], above 100 µM; in [4] it was above 100 µM; in assay [5], above 100 µM; in [6], above 100 µM. Further, the TGI in assay [7], in [8], in [9] and in assay [10] was above 100 µM in each case.

Take `COc1ccccc1N=N/C(=N/NC(=O)c1ccc(C)cc1)c1ccc(N(CCC#N)CCC#N)cc1OC`: the TGI is above 100 µM in assay [1]; above 100 µM in [2]; above 100 µM in [3]; above 100 µM in assay [4]; 84.4 µM in assay [5]; above 100 µM in assay [6]. Also, the TGI in assay [7] is 79.4 µM; in assay [8] it was 96 µM; in assay [9], above 100 µM; in assay [10], above 100 µM.

With `CCOP(=O)(OCC)/C(C#N)=C/c1cccn1N(C)C`, the TGI in [1], in assay [2], in assay [3], in assay [4], in assay [5] and in [6] was above 100 µM in each case. Moreover, the TGI in assay [7] is above 100 µM; in [8], 96.3 µM; in assay [9] it was above 100 µM; in assay [10], above 100 µM.

`CC(=O)c1c(-c2ccccc2)c(-c2ccc(OCCN(C)C)cc2)n2ccccc12`: the TGI in assay [1] was 33.3 µM; in [2] it was 32.1 µM; in [3], 33.9 µM; in [4], 24.1 µM; in assay [5], 26.5 µM; in assay [6], above 100 µM. Also, the TGI in [7] came out at 31 µM; in [8], 37.8 µM; in [9] it was 29.1 µM; in assay [10], 37.1 µM.

Regarding `O=C(OCC1CCCN2CCCCC12)c1ccncc1` (stereo not given), the TGI in assay [1], in [2], in assay [3], in assay [4], in assay [5] and in [6] was above 100 µM throughout. In addition, the TGI in [7], in assay [8], in [9] and in assay [10] was above 100 µM in each case.

`COc1cc(C2SCC(=O)N2c2ccc(Cl)cc2)cc(I)c1O` (stereo not given): the TGI is above 100 µM in [1]; above 100 µM in assay [2]; above 100 µM in assay [3]; above 100 µM in [4]; above 100 µM in assay [5]; above 67.5 µM in assay [6]. The TGI in assay [7], in [8], in assay [9] and in [10] was above 100 µM throughout.

Source of the values: PubChem BioAssay (NCI).
